From ChEMBL document CHEMBL5726952, “Compounds” (2019)

Assays:
Test in all cases: Kinase Screening Assay: Compound IC50 values were determined from 10-point, 1:3 dilution curves starting at either 100 μM or 10 μM with 10 μM ATP, by Reaction Biology Corp. For the whole kinome screen compounds were screened against 340 wild type kinases at a single dose of 1 μM, in duplicate, with 10 μM of ATP by Reaction Biology Corp. The data was averaged and plotted as percentage enzyme …
[1] = molecular target: Tyrosine-protein kinase Blk (Homo sapiens, UniProt P51451)
[2] = molecular target: Mast/stem cell growth factor receptor Kit (Homo sapiens, UniProt P10721)
[3] = molecular target: Platelet-derived growth factor receptor alpha (Homo sapiens, UniProt P16234)
[4] = molecular target: Tyrosine-protein kinase HCK (Homo sapiens, UniProt P08631)
[5] = molecular target: Proto-oncogene tyrosine-protein kinase receptor Ret (Homo sapiens, UniProt P07949)

Measured: IC50

Chain of Proto-oncogene tyrosine-protein kinase receptor Ret (P07949 whole entry): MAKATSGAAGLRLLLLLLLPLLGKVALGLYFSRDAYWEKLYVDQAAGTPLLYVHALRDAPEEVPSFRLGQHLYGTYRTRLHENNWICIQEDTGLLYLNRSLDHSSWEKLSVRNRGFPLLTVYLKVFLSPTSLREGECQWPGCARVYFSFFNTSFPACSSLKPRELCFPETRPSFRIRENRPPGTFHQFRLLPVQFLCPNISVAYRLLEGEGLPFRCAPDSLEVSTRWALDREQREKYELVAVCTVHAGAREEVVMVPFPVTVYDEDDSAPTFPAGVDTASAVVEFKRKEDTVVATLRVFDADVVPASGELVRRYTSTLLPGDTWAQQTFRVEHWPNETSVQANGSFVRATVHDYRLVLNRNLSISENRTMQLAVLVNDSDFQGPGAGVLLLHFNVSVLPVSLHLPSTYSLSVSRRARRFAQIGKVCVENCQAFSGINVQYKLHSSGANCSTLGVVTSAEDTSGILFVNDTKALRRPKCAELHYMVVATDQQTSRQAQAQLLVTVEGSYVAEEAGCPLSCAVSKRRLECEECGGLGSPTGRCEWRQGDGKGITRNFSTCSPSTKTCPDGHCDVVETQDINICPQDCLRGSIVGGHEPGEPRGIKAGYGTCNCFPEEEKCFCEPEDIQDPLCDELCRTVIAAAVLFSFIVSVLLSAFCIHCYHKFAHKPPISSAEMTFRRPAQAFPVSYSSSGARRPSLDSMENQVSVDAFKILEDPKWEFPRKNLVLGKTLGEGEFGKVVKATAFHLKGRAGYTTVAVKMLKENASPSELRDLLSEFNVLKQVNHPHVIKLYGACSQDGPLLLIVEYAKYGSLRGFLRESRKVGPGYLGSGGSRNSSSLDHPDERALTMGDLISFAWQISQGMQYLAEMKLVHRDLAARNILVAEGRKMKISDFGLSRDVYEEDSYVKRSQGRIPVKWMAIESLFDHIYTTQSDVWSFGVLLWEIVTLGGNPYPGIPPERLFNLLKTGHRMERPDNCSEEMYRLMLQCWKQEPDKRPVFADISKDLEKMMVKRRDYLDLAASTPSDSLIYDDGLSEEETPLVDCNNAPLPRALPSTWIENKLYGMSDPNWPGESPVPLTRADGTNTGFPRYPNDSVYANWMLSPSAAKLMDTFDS
Chain of Mast/stem cell growth factor receptor Kit (P10721 whole entry): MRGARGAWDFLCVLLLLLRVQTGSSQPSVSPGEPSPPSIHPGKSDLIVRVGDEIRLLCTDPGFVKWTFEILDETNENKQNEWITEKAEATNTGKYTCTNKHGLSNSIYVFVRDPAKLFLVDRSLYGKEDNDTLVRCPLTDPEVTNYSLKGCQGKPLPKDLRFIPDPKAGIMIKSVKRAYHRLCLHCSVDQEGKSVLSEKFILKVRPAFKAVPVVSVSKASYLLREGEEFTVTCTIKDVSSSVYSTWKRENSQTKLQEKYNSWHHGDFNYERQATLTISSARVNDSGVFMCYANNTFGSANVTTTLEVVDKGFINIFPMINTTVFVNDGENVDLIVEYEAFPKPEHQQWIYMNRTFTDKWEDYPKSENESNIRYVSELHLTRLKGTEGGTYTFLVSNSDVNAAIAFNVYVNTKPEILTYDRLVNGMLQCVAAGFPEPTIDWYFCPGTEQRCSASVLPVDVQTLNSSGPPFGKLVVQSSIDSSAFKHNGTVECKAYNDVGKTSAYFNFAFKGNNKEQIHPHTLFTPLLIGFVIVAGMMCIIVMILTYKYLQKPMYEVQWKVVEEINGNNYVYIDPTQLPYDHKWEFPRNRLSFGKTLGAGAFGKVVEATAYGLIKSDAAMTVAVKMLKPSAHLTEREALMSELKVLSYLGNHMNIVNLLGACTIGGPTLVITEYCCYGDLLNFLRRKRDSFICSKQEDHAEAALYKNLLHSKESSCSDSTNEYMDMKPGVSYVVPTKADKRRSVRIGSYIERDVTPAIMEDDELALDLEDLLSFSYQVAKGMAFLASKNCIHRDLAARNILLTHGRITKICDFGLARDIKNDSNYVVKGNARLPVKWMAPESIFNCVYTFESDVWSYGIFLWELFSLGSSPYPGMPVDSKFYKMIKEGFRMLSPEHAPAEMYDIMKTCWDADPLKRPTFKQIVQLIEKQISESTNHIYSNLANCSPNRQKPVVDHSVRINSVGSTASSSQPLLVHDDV
Chain of Tyrosine-protein kinase HCK (P08631 whole entry): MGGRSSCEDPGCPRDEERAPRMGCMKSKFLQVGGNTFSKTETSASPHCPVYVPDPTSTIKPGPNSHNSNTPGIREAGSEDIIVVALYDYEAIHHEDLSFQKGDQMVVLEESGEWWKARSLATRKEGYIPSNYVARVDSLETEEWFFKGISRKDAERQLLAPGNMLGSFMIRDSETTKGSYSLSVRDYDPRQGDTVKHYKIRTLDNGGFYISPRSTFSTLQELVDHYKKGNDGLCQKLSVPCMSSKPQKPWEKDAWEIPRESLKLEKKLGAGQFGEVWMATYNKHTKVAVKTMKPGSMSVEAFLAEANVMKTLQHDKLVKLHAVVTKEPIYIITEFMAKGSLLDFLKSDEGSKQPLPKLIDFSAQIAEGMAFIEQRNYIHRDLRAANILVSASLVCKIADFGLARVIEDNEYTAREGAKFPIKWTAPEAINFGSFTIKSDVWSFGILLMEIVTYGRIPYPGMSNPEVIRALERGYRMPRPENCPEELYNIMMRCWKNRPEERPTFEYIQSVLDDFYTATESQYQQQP
Chain of Tyrosine-protein kinase Blk (P51451 whole entry): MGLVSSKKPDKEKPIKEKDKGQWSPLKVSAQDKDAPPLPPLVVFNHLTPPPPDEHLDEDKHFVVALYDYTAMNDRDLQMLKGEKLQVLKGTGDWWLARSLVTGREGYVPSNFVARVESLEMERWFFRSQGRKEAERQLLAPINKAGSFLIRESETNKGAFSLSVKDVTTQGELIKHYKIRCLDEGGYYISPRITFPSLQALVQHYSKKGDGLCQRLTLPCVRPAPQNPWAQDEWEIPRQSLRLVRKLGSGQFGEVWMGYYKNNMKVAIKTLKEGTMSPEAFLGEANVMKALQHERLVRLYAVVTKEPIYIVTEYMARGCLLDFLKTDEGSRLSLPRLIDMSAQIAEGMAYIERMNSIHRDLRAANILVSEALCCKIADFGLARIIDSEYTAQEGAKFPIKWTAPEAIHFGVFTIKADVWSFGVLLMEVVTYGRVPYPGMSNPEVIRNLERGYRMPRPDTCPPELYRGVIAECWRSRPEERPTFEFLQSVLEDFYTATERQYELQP
Chain of Platelet-derived growth factor receptor alpha (P16234 whole entry): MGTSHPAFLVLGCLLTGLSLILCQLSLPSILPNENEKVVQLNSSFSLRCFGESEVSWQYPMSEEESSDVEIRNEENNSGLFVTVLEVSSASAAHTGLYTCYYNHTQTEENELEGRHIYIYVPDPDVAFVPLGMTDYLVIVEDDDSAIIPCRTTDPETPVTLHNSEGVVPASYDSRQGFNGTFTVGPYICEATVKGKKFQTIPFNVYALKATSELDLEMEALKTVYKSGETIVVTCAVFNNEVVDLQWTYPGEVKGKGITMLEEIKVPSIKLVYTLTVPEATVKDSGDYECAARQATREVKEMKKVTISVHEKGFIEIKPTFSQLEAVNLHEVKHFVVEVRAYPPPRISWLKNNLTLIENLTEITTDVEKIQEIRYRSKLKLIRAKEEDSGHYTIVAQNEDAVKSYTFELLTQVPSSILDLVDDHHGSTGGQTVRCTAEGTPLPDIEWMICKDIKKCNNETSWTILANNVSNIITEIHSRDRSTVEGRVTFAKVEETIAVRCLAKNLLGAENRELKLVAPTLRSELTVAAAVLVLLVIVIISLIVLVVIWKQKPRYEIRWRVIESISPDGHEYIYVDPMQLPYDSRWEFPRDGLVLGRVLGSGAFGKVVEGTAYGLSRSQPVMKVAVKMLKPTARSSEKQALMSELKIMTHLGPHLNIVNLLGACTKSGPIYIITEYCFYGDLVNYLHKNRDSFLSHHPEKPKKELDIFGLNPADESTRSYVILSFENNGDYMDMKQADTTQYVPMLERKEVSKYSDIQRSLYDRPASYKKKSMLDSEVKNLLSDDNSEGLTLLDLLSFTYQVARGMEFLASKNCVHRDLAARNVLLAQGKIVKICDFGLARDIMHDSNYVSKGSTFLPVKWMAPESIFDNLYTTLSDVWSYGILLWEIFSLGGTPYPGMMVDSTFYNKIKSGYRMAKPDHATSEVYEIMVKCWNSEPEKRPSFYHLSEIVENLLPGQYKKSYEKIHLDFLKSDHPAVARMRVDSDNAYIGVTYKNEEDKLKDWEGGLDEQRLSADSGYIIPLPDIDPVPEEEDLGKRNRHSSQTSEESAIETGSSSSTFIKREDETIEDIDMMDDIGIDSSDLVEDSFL

Cc1ccc(-c2nn(CCN3CCC(N(C)C)CC3)c3ncnc(N)c23)cc1
> 1 µM: all assays above
